According to publication PMC7486399 (Nature Communications, 2020):
Several values for one entry are separate records, joined by “and”; a condition that tells them apart may be missing. Equal values may be shown once.

What was measured:
A549 cells [1] = assay type: cell-based, human
A549-ACE2 cells [2] = assay type: cell-based, human
[3] = system: interaction between the S1 subunit and ACE2 receptor; assay: AFM competition binding: ACE2-derived peptides vs S1 subunit-ACE2 binding on model surface; conditions: for binding probability (BP) with peptide (Fig. 4b) / reduction in the BP (S1-ACE2 complex formation): 250 ms contact time; for binding probability (BP) with peptide (Fig. 4b): mean, N ≥ 3, 0 µM BP: 22-44 10.8724, 22-57 8.6263, 22-44-g-351-357 10.6771, 351-357 8.65885, PEG tip 2.60417; for delta binding (change of binding probability, Fig. 4c): vs 0 µM; for decrease in the BP on purified receptor: AFM on purified ACE2 receptor; for 50% inhibitory concentration (IC50): S1-ACE2 binding by AFM, estimated from 1, 10, 100 µM; for reduction in the BP (S1-ACE2 complex formation): concentration not printed in the sentence (tested 1, 10, 100 µM)
[4] = system: mixed culture of A549 and A549-ACE2 cells; assay type: cell-based, human; conditions: AFM
A549 cells [5] = assay: AFM S1 binding probability on A549 cells before and after [22-57] peptide; assay type: cell-based, human; conditions: for BP (Fig. 5a), 100 μM peptide: A549 cells, 100 μM [22–57]
A549-ACE2 cells [6] = assay: AFM S1 binding probability on A549-ACE2 cells before and after [22-57] peptide; assay type: cell-based, human; conditions: for BP (Fig. 5a), 100 μM peptide: 100 μM [22–57]
[7] = 1 µM peptide, ddH2O control 27.2772
[8] = 10 µM peptide, ddH2O control -35.4337
[9] = 100 µM peptide, ddH2O control -21.9737

| Substance | binding probability (BP) with peptide (Fig. 4b) ([3]; 1 µM peptide) | delta binding (change of binding probability, Fig. 4c) [3, 7] | binding probability (BP) with peptide (Fig. 4b) ([3]; 10 µM peptide) | delta binding (change of binding probability, Fig. 4c) [3, 8] | binding probability (BP) with peptide (Fig. 4b) ([3]; 100 µM peptide) | delta binding (change of binding probability, Fig. 4c) [3, 9] | decrease in the BP on purified receptor [3] [%] | 50% inhibitory concentration (IC50) [3] | reduction in the BP (S1-ACE2 complex formation) [3] | decrease in the BP on living cells [4] [%] | further results |
| --- | --- | --- | --- | --- | --- | --- | --- | --- | --- | --- | --- |
| 9-O-acetyl-2-α-O-propargyl-SC [SA] |  |  |  |  |  |  |  |  |  |  | binding probability + SA (Fig. 3f) (A549 cells [1]): 4.4 and 4.6 and 7 and 7.2; binding frequency after SA injection (A549 cells [1]; A549 cells, 9-O-acetyl-sialogycans, 1 mM): ~ 7%; binding probability + SA (Fig. 3f) (A549-ACE2 cells [2]): 12.6 and 8.7 and 9 and 10.4; binding frequency after SA injection (A549-ACE2 cells [2]; […], 9-O-acetyl-sialogycans, 1 mM): ≈ 10% |
| [22–44]: ACE2-derived peptide fragment 22–44, N-terminal helix of ACE2 (sequence in Supplementary Fig. 9) | 6.934 | -48.3738 | 4.232 | -79.2642 | 4.6224 | -75.9263 | > 70 | in the µM range | ~ 76% | > 70 |  |
| [22–44–g–351–357]: ACE2-derived fragments 22–44 and 351–357 joined by a glycine residue (EEQAKTFLDKFNHEAEDLFYQSSGLGKGDFR) | 6.641 | -45.2583 | 4.915 | -63.4203 | 4.655 | -62.3402 |  |  |  |  | binding inhibition, result in words ([3]; compared with the other peptides): we did not notice any strong improvement in the binding inhibition |
| [22–57]: ACE2-derived peptide fragment 22–57, N-terminal helix of ACE2 (sequence in Supplementary Fig. 9) | 6.706 | -31.3144 | 5.599 | -50.4102 | 4.167 | -74.5041 | > 70 | in the µM range | ~ 74% | > 70 | change of BP after peptide injection (A549 cells [5]; A549 cells (both cell types), 100 µM peptide): significant decrease of the BP on both cell types; BP (Fig. 5a), 100 μM peptide (A549 cells [5]; replicate 1 (0 μM: 10.8)): 4.3; BP (Fig. 5a), 100 μM peptide (A549 cells [5]; replicate 2 (0 μM: 9.7)): 4.1; BP (Fig. 5a), 100 μM peptide (A549 cells [5]; replicate 3 (0 μM: 7.7)): 1.9; BP (Fig. 5a), 100 μM peptide (A549-ACE2 cells [6]; replicate 1 (0 μM: 17)): 9.7; BP (Fig. 5a), 100 μM peptide (A549-ACE2 cells [6]; replicate 2 (0 μM: 15.7)): 8.5; BP (Fig. 5a), 100 μM peptide (A549-ACE2 cells [6]; replicate 3 (0 μM: 29)): 4.4; BP (Fig. 5a), 100 μM peptide (A549-ACE2 cells [6]; replicate 4 (0 μM: 15.9)): 10.1; BP level after peptide injection (A549-ACE2 cells [6]; 100 µM peptide): reaching a level close to the one of the control cells |
| [351–357]: ACE2-derived peptide fragment 351–357, part of a hot binding spot (LGKGDFR; UniProt Q9BYF1 351-357, looked up, fragment) | 5.599 | -43.4556 | 6.3151 | -34.8403 | 5.339 | -54.9815 |  |  |  |  |  |
| cRGD |  |  |  |  |  |  |  |  |  |  | binding probability + RGD (Fig. 3f) (A549 cells [1]; S1 tip on A549 cells after cRGD, 500 μM, 37 °C, individual data points): 13.1 and 7.8 and 10.6 and 9.5; reduction of the binding frequency after cRGD injection (A549-ACE2 cells [2]; A549-ACE2 cells, cRGD 500 μM): 1–2%; binding probability + RGD (Fig. 3f) (A549-ACE2 cells [2]; S1 tip on A549-ACE2 cells after cRGD, 500 μM, 37 °C, individual data points): 14.1 and 9.9 and 20.6 and 14.7 |
